Results from the NIST ThermoML archive (doi:10.1016/j.tca.2009.06.012).
± gives the expanded uncertainty stated by the source.

Legend:
[1] = Molar enthalpy of transition or fusion; settings: Crystal; DSC
[2] = Crystal

SMILES | Molar enthalpy of transition or fusion [1] [kcal/mol] | Normal melting temperature ([2]; visual observation) [°C] | Normal melting temperature ([2]; DTA) [°C]
Brc1ccc(-c2ccc(Br)cc2)cc1 [4,4'-dibromo-1,1'-biphenyl] | 6.78 ± 0.203 | 167.50 ± 0.5 | –
N#CCCC#N [butanedinitrile] | 0.884 ± 0.0765 | – | 56.50 ± 0.5
